Source: paper PMC3328449, “Inhibition of Diacylglycerol–Sensitive TRPC Channels by Synthetic and Natural Steroids” (PLoS ONE, 2012)

Molecular target: T1, mTRPC4ß (Mus musculus, UniProt Q9QUQ5)
T1 construct: expressed in transfected cells
T1 sequence (Q9QUQ5 1-890 isoform Q9QUQ5-2): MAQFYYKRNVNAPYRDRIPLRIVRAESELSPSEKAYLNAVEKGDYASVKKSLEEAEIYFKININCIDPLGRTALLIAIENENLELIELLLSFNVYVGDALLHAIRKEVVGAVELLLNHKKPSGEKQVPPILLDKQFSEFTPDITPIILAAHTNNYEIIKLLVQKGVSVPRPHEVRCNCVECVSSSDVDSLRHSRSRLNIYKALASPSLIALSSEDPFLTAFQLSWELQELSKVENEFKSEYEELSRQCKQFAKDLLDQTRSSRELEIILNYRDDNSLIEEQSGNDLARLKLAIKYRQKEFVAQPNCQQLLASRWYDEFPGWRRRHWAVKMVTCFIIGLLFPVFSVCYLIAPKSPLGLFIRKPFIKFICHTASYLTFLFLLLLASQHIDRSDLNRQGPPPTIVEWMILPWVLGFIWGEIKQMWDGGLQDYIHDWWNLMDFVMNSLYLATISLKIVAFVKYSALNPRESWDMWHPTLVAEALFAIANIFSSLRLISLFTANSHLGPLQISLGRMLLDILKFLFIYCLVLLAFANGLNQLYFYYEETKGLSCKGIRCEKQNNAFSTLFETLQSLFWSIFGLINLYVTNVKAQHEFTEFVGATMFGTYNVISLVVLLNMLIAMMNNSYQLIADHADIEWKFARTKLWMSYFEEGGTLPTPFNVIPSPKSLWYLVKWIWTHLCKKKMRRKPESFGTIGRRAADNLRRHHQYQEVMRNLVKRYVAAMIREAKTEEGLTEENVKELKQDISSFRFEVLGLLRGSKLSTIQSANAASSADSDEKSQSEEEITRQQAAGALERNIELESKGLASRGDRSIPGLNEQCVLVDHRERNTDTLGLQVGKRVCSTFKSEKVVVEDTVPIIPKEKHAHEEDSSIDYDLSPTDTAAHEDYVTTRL
Assay: Trypsin-induced Ca2+ entry, fluo-4 fluorometric imaging plate reader, TRPC4 HEK-FITR cells
Format: cell-based
Experimental: Cells were grown at 37°C in a humidified atmosphere (5% or 7% CO2) under standard cell culture conditions. Stable human embryonic kidney (HEK) cell lines expressing recombinant mTRPC4ß (GenBank accession number AAC05178); mTRPC5 (GenBank accession number NM_009428) or hTRPC6 (GenBank accession number AF080394) under the control of a tetracycline-inducible promoter were generated using the Flp-In T-Rex (FITR) system (Invitrogen, Karlsruhe, Germany). […]
Cells grown to an almost confluent monolayer on black poly-D-lysine coated 96-well plates (Greiner, Frickenhausen, Germany) were washed with standard extracellular solution (140 mM NaCl, 1 mM MgCl2, 5.4 mM KCl, 2 mM CaCl2, 10 mM HEPES, 10 mM glucose, pH 7.35) and stained (30 min, room temperature) with dye solution (2 µM fluo-4 AM, 0.02% pluronic F127, 0.1% bovine serum albumin in standard extracellular solution). […] Fluo-4 fluorescence was excited at 488 nm with an argon laser and measured using a fluorometric imaging plate reader (Molecular Devices, Sunnyvale, USA). […]
TRPC4- and TRPC5-mediated Ca^2+ influx was stimulated by application of trypsin that activates endogenous Gq-coupled protease activated receptors in HEK cells. […] Compound effects were then calculated from the area under the curve and normalized to the Ca^2+ influx into trypsin-stimulated, non-compound-treated cells. […]

CC(=O)[C@H]1CC[C@H]2[C@@H]3CCC4=CC(=O)CC[C@]4(C)[C@H]3CC[C@]12C [progesterone]
IC50 (TRPC4 HEK-FITR cells, fluo-4, 200 nM trypsin, read-out: IC50, inhibition of trypsin-induced Ca2+ entry via TRPC4): 6.2 µM | Hill slope n, inhibition of TRPC4-mediated Ca2+ entry (fit to Hill model): 1.15
